Source: patent US20200188468A1, “A COATED COSTUS COMPOSITION ENRICHED WITH TRITERPENOIDS AND A METHOD OF PREPARATION OF THE SAME” (priority 2017, published 2020)

Key:
Type in all cases: in vivo, Wistar rats
[1] = tested on: streptozotocin-induced diabetic rats; experiment: Oral glucose tolerance test on day 1, 15 and 30 of 30 days treatment; conditions: STZ diabetic rats, doses as in E42
Procedure: (§1) Adult Wistar rats weighing 200-250 gm were selected at random; the animals were kept in standard animal house conditions at 24±2° C., 65% relative humidity and 12 h light/dark cycle. After five days of acclimatisation, diabetes was induced by injecting streptozotocin 35 mg/kg dissolved in 0.1M citrate buffer of pH 4.5, intraperitoneally, as standardised in our laboratory. Five days after induction of diabetes (day 1 of the study), animals fasted for 12 hours and the fasting blood glucose level (FBG) was estimated for diagnosing diabetic rats. Animals having FBG more than 250 mg/dl were included in the study.
(§2) Six normal healthy rats were allocated to Group I; streptozotocin-induced diabetic rats were randomly allocated to Groups 2 to 9 with 6 rats in each group. The animals were treated for 30 days as per below experimental design:
(§3) Group 3—Positive control—diabetic animals administered with glibenclamide at 1 mg/kg Body wt orally for 30 days.
(§4) Group 4—diabetic animals administered with Sample 1 at 100 mg/kg Body wt orally for 30 days.
(§5) Group 5—diabetic animals administered with Sample 2 at 100 mg/kg Body wt orally for 30 days.
(§6) Group 6—diabetic animals administered with of Sample 3 at 100 mg/kg Body wt orally for 30 days.
(§7) Group 7—diabetic animals administered with Product-1 at 50 mg/kg Body wt orally for 30 days.
(§8) Group 8—diabetic animals administered with Product-2 at 50 mg/kg Body wt orally for 30 days.
(§9) Group 9—diabetic animals administered with of Product-3 at 10 mg/kg Body wt orally for 30 days.
(§10) Oral glucose tolerance test (OGTT) was performed following a glucose challenge of 2 g/kg by oral gavages. It was to test the ability of body cells to absorb glucose after you ingest a given amount of sugar. Blood glucose was recorded at 30 min (PPG1), 60 min (PPG2), 120 min (PPG3) and 180 min (PPG4), after the glucose challenge on day 1, day 15 and day 30 of the study.

[2] = tested on: high-fat diet-induced insulin resistance rats; experiment: High fat diet-induced insulin resistance model (Type 2 diabetes); conditions: HFD rats
Procedure: The study was designed to evaluate the effect of different fractions and compositions of costus on high fat-induced resistance Type-2 diabetic model (HFD). Adult Wistar rats were allowed free access to food and water. They were housed under identical standard conditions. The animals were kept for acclimatisation for a period of 7 days. After 7 days, the animals were randomly divided into six groups of six rats each. The normal control group was treated with normal regular diet and the rest of the animals were fed with high-fat diet for 6 weeks. After 6 weeks, Sample-1, Sample-3, and Product-2 were administered at a specific dosage as per their groups for 6 consecutive weeks. The experimental design was as follows:
as §3
Group 4—diabetic animals administered with Sample-1 at 300 mg/kg Body wt orally for 30 days.
Group 5—diabetic animals administered with Sample-3 at 100 mg/kg Body wt orally for 30 days.
Group 6—diabetic animals administered with of Product-2 at 50 mg/kg Body wt orally for 30 days.
Body weights were determined weekly. At the end of experimental period, blood samples were collected to determine plasma glucose, insulin, glycosylated haemoglobin, triglycerides, and total cholesterol, LDL, HDL and VLDL.

[3] = tested on: streptozotocin and HFD diabetic rats; experiment: Streptozotocin plus high fat diet Type 2 diabetes model, coated versus uncoated costus extract; conditions: STZ + HFD diabetic rats
Procedure: Wistar rats were selected at random; the animals were kept in standard animal house conditions at 24±2° C., 65% relative humidity and 12 h light/dark cycle. The animals were acclimatized for a period of five days and fed with standard pellet diet and water. Fasted male Wistar rats were intraperitoneally injected with freshly prepared solution of streptozotocin (STZ) (35 mg/kg). After injection, all the animals were continued on the standard rodent diet for 2 weeks. At the end of 2 weeks after STZ injection; 1 ml of blood was collected from retro-orbital plexus of each rat. Blood was allowed to clot for 30 min the serum was separated by centrifuging at 1008 G-force for 20 min at 8.0° C. in a cold centrifuge. The serum separated from the blood of each animal was used for the estimation of glucose. All the samples were analysed calorimetrically in Autoanalyzer (MERCK MICROLAB 300) using commercial kits. The development of hyperglycaemia in these rats was thus confirmed by measuring fasting blood glucose levels. The rats with the fasting PGL of ≥200 mg dl−1 were considered diabetic and selected for further dietary manipulation. 350 g of standard rodent diet was powdered and mixed with 60 g of lard, 45 g of yolk powder, and 45 g of plantation white sugar (HFD diet). The above mixture is pelleted and used to feed the rats for 2 weeks to induce diabetic dyslipidaemia. Required amount of the diet was freshly prepared on a daily basis. At the end of 2nd week the blood was collected from each animal for determination of glucose levels as described above.
After the second fasting blood glucose estimation, at the end of 4th week, the rats were divided into 6 groups of 6 rats each: Group-1 consisted of age-matched non-diabetic normal rats that neither received streptozotocin nor the high-fat diet and served as normal; Group 2 consisted of diabetic rats without any drug treatment and served as untreated control; Group 3 consisted of diabetic rats and received standard drug, Glibenclamide. Group 4 consisted of diabetic rats and received excipients. Group 5 consisted of diabetic rats and sample 2. Group 6 consisted of diabetic rats and product 2. The high fat diet was continued for the rest of the study duration.
Group 3—Diabetic, HFD administered group treated with Glibenclamide at 2.5 mg/Kg p.o. body weight.
Group 5—Diabetic, HFD administered group treated with sample 2 for at 40 mg/kg twice daily.
Group 6—Diabetic, HFD administered group treated with product-2 at 100 mg/kg twice daily.
Body weights were determined biweekly. At the end of experimental period, blood samples were collected to determine plasma glucose, insulin, leptin, glycosylated hemoglobin, triglycerides, total cholesterol, LDL, HDL and VLDL.

[4] = tested on: streptozotocin-induced diabetic rats; experiment: Fasting blood glucose level, 30 days treatment; conditions: STZ diabetic rats, glibenclamide 1 mg/kg, Samples 1-3 100 mg/kg, Product-1 and -2 50 mg/kg, Product-3 10 mg/kg orally
Procedure: as §1, §2, §3, §4, §5, §6, §7, §8, §9
FBG was measured on Day 0, Day 15 and Day 30. OGTT was also performed on Day 0, Day 15 and Day 30.

[5] = tested on: streptozotocin-induced diabetic rats; experiment: Postprandial glucose levels (OGTT) of costus in various dosages; conditions: STZ diabetic rats, 1 mg/kg oral
Procedure: Adult Wistar rats weighing 200-250 gm were selected at random; the animals were kept in standard animal house conditions at 24±2° C., 65% relative humidity and 12 h light/dark cycle. The animals were acclimatized for a period of five days and fed with standard pellet diet and water. Six healthy rats were separated at random from the lot and diabetes was induced in rest by a single intra-peritoneal injection of streptozotocin (STZ) at 35 mg/kg. Fasting blood sugar (FBS) was measured after seven days of STZ injection and rats having FBS more than 200 mg/dl were considered as diabetic. The diabetic rats were separated out and randomly divided into 11 groups having six rats in each. Six normal healthy rats were allocated to Group I; STZ induced diabetic rats were randomly allocated to Groups 2 to 12.
as §10, with “min,” for “min (PPG1),”, “min,” for “min (PPG2),”, “min” for “min (PPG3)”, “min,” for “min (PPG4),”, “day” for “day 1, day 15 and day 30”
Just after glucose challenge test a specific Doses of Sample-1 (from example 1) and Product-2 (from example 4) were administered through oral gavages. The dosages for Sample-1 and Product-1 were in a range of 25 mg/kg Body wt to 300 mg/kg Body wt. In one of the groups animals were administered with glibenclamide.
Group 2—Positive control—diabetic animals administered with glibenclamide at 1 mg/kg Body wt orally for 30 days.
Group 3—diabetic animals administered with Sample-2 at 25 mg/kg Body wt orally for 30 days.
Group 4—diabetic animals administered with Sample-2 at 50 mg/kg Body wt orally for 30 days.
Group 5—diabetic animals administered with Sample-2 at 75 mg/kg Body wt orally for 30 days.
Group 6—diabetic animals administered with Sample-2 at 100 mg/kg Body wt orally for 30 days.
Group 7—diabetic animals administered with Sample-2 at 150 mg/kg Body wt orally for 30 days.
Group 8—diabetic animals administered with Sample-2 at 300 mg/kg Body wt orally for 30 days.
Group 9—diabetic animals administered with Product-2 at 25 mg/kg Body wt orally for 30 days.
Group 10—diabetic animals administered with Product-2 at 50 mg/kg Body wt orally for 30 days.
Group 11—diabetic animals administered with Product-2 at 75 mg/kg Body wt orally for 30 days.
Group 12—diabetic animals administered with Product-2 at 100 mg/kg Body wt orally for 30 days.
Group 13—diabetic animals administered with Product-2 at 150 mg/kg Body wt orally for 30 days.

[6] = end of experimental period, doses as in E59

COc1ccc(Cl)cc1C(=O)NCCc1ccc(S(=O)(=O)NC(=O)NC2CCCCC2)cc1 [glibenclamide]
PPG 30 min, Day 1 ([1]; Day 1, 30 min after 2 g/kg glucose): 294 mg/dL | PPG 60 min, Day 1 ([1]; Day 1, 60 min after 2 g/kg glucose): 232 mg/dL | PPG 120 min, Day 1 ([1]; Day 1, 120 min after 2 g/kg glucose): 226 mg/dL | PPG 180 min, Day 1 ([1]; Day 1, 180 min after 2 g/kg glucose): 158 mg/dL | PPG 30 min, Day 15 ([1]; Day 15, 30 min after 2 g/kg glucose): 285 mg/dL | PPG 60 min, Day 15 ([1]; Day 15, 60 min after 2 g/kg glucose): 225 mg/dL | PPG 120 min, Day 15 ([1]; Day 15, 120 min after 2 g/kg glucose): 219 mg/dL | PPG 180 min, Day 15 ([1]; Day 15, 180 min after 2 g/kg glucose): 153 mg/dL | PPG 30 min, Day 30 ([1]; Day 30, 30 min after 2 g/kg glucose): 276 mg/dL | PPG 60 min, Day 30 ([1]; Day 30, 60 min after 2 g/kg glucose): 218 mg/dL | PPG 120 min, Day 30 ([1]; Day 30, 120 min after 2 g/kg glucose): 212 mg/dL | PPG 180 min, Day 30 ([1]; Day 30, 180 min after 2 g/kg glucose): 148 mg/dL | Blood glucose [2, 6]: 142 mg/dL | Glycosylated Hb [2, 6]: 0.5 % of total Hb | HDL [2, 6]: 27 mg/dL | LDL [2, 6]: 55 mg/dL | TC [2, 6]: 91.4 mg/dL | TG [2, 6]: 47 mg/dL | VLDL [2, 6]: 9.4 mg/dL | Insulin ([2]; serum, end of experimental period, doses as in E59): 1.7 ng/mL | Body weight, week 0 ([2]; week 0, glibenclamide 1 mg/kg, Sample-1 300 mg/kg, Sample-3 100 mg/kg, Product-2 50 mg/kg orally): 216 grams | Average Body weight at weekly interval, week 2 ([2]; week 2, doses as in E59): 259 grams | Average Body weight at weekly interval, week 3 ([2]; week 3, doses as in E59): 274 grams | Average Body weight at weekly interval, week 4 ([2]; week 4, doses as in E59): 280 grams | Average Body weight at weekly interval, week 5 ([2]; week 5, doses as in E59): 270 grams | Average Body weight at weekly interval, week 6 ([2]; week 6, doses as in E59): 248 grams | Glycosylated Hb ([3]; after 28 days, doses as in E92): 0.5 % of total Hb | HDL ([3]; after 28 days, doses as in E92): 25 mg/dL | LDL ([3]; after 28 days, doses as in E92): 92 mg/dL | TC ([3]; after 28 days, doses as in E92): 136.4 mg/dL | TG ([3]; after 28 days, doses as in E92): 97 mg/dL | VLDL ([3]; after 28 days, doses as in E92): 19.4 mg/dL | Body weight at biweekly interval, 0 ([3]; interval 0, Glibenclamide 2.5 mg/kg p.o., sample 2 40 mg/kg, product-2 100 mg/kg twice daily): 168 grams | Body weight at biweekly interval, 2 ([3]; interval 2, doses as in E92): 174 grams | Body weight at biweekly interval, 4 ([3]; interval 4, doses as in E92): 180 grams | Body weight at biweekly interval, 6 ([3]; interval 6, doses as in E92): 187 grams | Body weight at biweekly interval, 8 ([3]; interval 8, doses as in E92): 192 grams | Insulin ([3]; serum, after 28 days, doses as in E92): 1.58 ng/mL | Fasting blood glucose level 0th day ([4]; day 0): 388 mg/dL | Fasting blood glucose level 15th day ([4]; day 15): 266 mg/dL | Fasting blood glucose level 30th day ([4]; day 30): 142 mg/dL | Postprandial glucose level 30 min ([5]; 30 min after 2 g/kg glucose): 294 mg/dL | Postprandial glucose level 60 min ([5]; 60 min after 2 g/kg glucose): 170 mg/dL | Postprandial glucose level 120 min ([5]; 120 min after 2 g/kg glucose): 127 mg/dL | Postprandial glucose level 180 min ([5]; 180 min after 2 g/kg glucose): 101 mg/dL
